Legend:
[1] = system: V2R mutants (Y128S and W164S); test: BRET pharmacological chaperone rescue assay (rGFP-CAAX), V2R mutants; type: cell-based, human; details: 10 μM, 16 h, BRET1
Method: BRET assay for evaluation of PC rescue of cell surface expression and functionality (sequestration assay). In FIGS. 12A to 18E, Hek293 cells were transiently transfected using PEI as described in this section. The DNA transfected per well of a 96-well plate is as follow: in FIGS. 12A and 12B, with 2.4 ng of hMC4R-RlucII encoding construct and an increasing quantity of rGFP-CAAX (Kras) up to 9.6 ng for FIGS. 12A and for 12B, rGFP-PB up to 9.6 ng; in FIGS. 13A to 13C with 0.6, 1.2 or 2.4 ng of hMC4R-RlucII and 4.8 ng of rGFP-CAAX (Kras); in FIG. 13D with 2.4 ng of polycistronic rGFP-CAAX(Kras)/MC4R-RlucII construct; in FIG. 13E with 1.2 ng of hV2R-RlucII and 4.8 ng of rGFP-CAAX (Kras); in FIGS. 14A to 16B with 2.4 ng of hMC4R-RlucII and 7.2 ng of rGFP-CAAX (Kras); Hek293 cells stably expressing rGFP-CAAX(Kras) were transfected with 0.6, 1.2 or 2.4 ng of hMC4R-RlucII; in FIG. 17A or 0.6, 1.2 or 2.4 ng of hV2R_Y128S-RlucII; in FIG. 17B; in FIGS. 18A and 18B with 0.6, 1.2 or 2.4 ng of hERG-RlucII and 4.8 ng of rGFP-CAAX (Kras); and in FIGS. 18C-18E with 0.6 ng of hERG-RlucII and 7.2 ng of rGFP-CAAX (Kras). […] For the BRET assay, cells were washed once with PBS and left in Tyrode's buffer. […] BRET values were determined by calculating the ratio of the light emitted by the acceptor over the light emitted by the RlucII.

[2] = target: T1, AT1R (Homo sapiens, UniProt P30556); test: AT1R endocytosis BRET at plasma membrane (AT1R-RlucII/lyn-rGFP); type: cell-based; parameters: signal peptide-Flag-human AT1R (spFlag-AT1R); signal peptide (N); expressed in transfected cells; host or cells: HEK293SL (HEK293 for the screen); details: 0.45 M sucrose 20 min
T1 sequence (P30556 with tags, fused parts or gaps): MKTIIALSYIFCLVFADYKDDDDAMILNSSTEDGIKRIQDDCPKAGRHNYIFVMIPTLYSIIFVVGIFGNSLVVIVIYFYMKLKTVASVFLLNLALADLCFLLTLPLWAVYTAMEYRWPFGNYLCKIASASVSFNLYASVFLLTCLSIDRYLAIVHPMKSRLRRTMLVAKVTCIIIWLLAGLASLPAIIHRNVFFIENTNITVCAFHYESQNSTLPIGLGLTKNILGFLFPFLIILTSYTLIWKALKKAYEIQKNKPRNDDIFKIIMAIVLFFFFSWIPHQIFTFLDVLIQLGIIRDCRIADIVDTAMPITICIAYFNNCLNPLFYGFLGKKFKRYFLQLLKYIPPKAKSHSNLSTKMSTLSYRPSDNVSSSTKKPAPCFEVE
Method: (§1) BRET measurements for FIGS. 1B to 9D, 25D to 25F. The following day of transfection, cells were detached and replated onto poly-ornithine coated white 96-well plate at a density of 25,000 cells per well. The next day, cells were washed once with pre-warmed Tyrode's buffer (140 mM NaCl, 2.7 mM KCl, 1 mM CaCl2, 12 mM NaHCO3, 5.6 mM D-glucose, 0.5 mM MgCl2, 0.37 mM NaH2PO4, 25 mM HEPES, pH 7.4), and then stimulated with either various concentrations of ligands in Tyrode's buffer for the indicated time, or single concentration of ligands for various times at 37° C. For recycling experiment, after stimulating the cells with the ligands for 30 min at 37° C., they were washed either three times with ice-cold Tyrode's buffer or once with Tyrode's buffer/three times with acid (50 mM sodium citrate, pH 4.0)/two times with Tyrode's buffer. All the washing steps were performed on ice. […] The cell-permeable substrate, coelenterazine 400a was added at a final concentration of 5 μM in Tyrode's buffer 3-4 min before BRET measurements. […] The BRET signal was determined by calculating the ratio of the light intensity emitted by the GFP10 or rGFP over the light intensity emitted by the RlucII. All the BRET measurements were performed in triplicate at 37° C.
(§2) Data Analysis. Estimation of the t1/2 and the EC50 values for ligand-mediated endocytosis were calculated using the GraphPad® Prism curve fitting program The curves presented throughout this study, representing the best fits, and were generated using this GraphPad® Prism program as well.

[3] = target: T2, AT1R (Homo sapiens, UniProt P30556); test: β-arrestin2 targeting to endosomes BRET (AT1R/βarr2-RlucII/rGFP-endofinFYVE); type: cell-based
T2 construct: expressed in transfected cells; host or cells: HEK293SL
T2 sequence (P30556 1-359): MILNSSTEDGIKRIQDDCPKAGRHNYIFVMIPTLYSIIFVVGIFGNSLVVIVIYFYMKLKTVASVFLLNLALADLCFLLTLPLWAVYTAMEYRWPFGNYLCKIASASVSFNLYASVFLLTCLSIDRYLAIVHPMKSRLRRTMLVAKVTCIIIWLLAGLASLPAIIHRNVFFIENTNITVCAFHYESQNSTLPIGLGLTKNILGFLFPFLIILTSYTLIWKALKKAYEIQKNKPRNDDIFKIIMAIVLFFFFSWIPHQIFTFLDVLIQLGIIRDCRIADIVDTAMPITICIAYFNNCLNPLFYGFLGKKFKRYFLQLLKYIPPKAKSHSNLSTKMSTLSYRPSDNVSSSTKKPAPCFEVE
Method: BRET measurements for FIGS. 1B to 9D, 25D to 25F. The following day of transfection, cells were detached and replated onto poly-ornithine coated white 96-well plate at a density of 25,000 cells per well. The next day, cells were washed once with pre-warmed Tyrode's buffer (140 mM NaCl, 2.7 mM KCl, 1 mM CaCl2, 12 mM NaHCO3, 5.6 mM D-glucose, 0.5 mM MgCl2, 0.37 mM NaH2PO4, 25 mM HEPES, pH 7.4), and then stimulated with either various concentrations of ligands in Tyrode's buffer for the indicated time, or single concentration of ligands for various times at 37° C. For recycling experiment, after stimulating the cells with the ligands for 30 min at 37° C., they were washed either three times with ice-cold Tyrode's buffer or once with Tyrode's buffer/three times with acid (50 mM sodium citrate, pH 4.0)/two times with Tyrode's buffer. All the washing steps were performed on ice. Cells were then further incubated with Tyrode's buffer at 37° C. in a water bath for 45 min. The cell-permeable substrate, coelenterazine 400a was added at a final concentration of 5 μM in Tyrode's buffer 3-4 min before BRET measurements. Measurements were performed by using Synergy2 (BioTek®) microplate reader with a filter set of 410±80 nm and 515±30 nm for detecting the RlucII Renilla luciferase (donor) and GFP10 or rGFP (acceptor) light emissions, respectively. The BRET signal was determined by calculating the ratio of the light intensity emitted by the GFP10 or rGFP over the light intensity emitted by the RlucII. All the BRET measurements were performed in triplicate at 37° C.

[4] = target: T1, AT1R; test: AT1R trafficking to endosomes BRET (AT1R-RlucII/rGFP-endofinFYVE); type: cell-based; parameters: expressed in transfected cells; host or cells: HEK293SL (HEK293 for the screen)
Method: as §1, §2

[5] = target: T2, AT1R; test: PKN-based RhoA activation BRET assay (PKN-crib-RlucII/rGFP-CAAX) with AT1R; type: cell-based; details: 100 nM Ubo-Qic 30 min, ligand 4 min
Method: as §1
PKN-based RhoA activation assay. For FIGS. 25B-D, HEK293SL cells were grown in DMEM supplemented with 6% fetal bovine serum (FBS) and 20 μg/ml gentamycin, at 37° C. Cells were seeded at a density of 7.5×10^5 cells per 100 mm dishes and were transiently transfected the next day with constructs encoding AT1R (3 μg) along with PKN-crib-RlucII (90 ng) and rGFP-CAAX (480 ng) using calcium phosphate method as described previously. After 24 h, cells were detached and seeded onto poly-ornithine-coated 96-well white plates at a density of 25 000 cells per well in media. The next day, cells were washed once with Tyrode's buffer and left in 80 μl of Tyrode's buffer at 37° C. When indicated, cells were treated with Ubo-Qic 100 nM for 30 min or C3 toxin for 3 μg/ml (in FIG. 25I), 4 hours at 37° C. Cell stimulation and BRET measurements were done at RT. BRET signals were monitored by addition of Coel-400a to a final concentration of 5 μM using a Synergy2 (BioTek®) microplate reader. […] For FIG. 25B, a transfection mix of 200 ng of TPαR, 20 ng PKN-RlucII, 600 ng CAAX-rGFP, complemented to 2 μg with ssDNA and PEI at a ratio of PEI:DNA of 3:1, is added to 3 ml of Hek293SL (350 000 cells/ml). Cells were seeded on poly-D-lysine pretreated plates. […] Cells were stimulated for 2 min with the indicated doses of U46619. […] For FIGS. 25I and J, a transfection mix of 200 ng of TPαR, 20 ng PKN-RlucII, 600 ng CAAX-rGFP, complemented to 2 μg with ssDNA and PEI at a ratio of PEI:DNA of 3:1, is added to 3 ml of Hek293SL (350,000 cells/ml). Cells were seeded on poly-D-lysine pretreated plates. 24 h post-transfection, the Rho inhibitor (CT04; Cytoskeleton, Inc) was added when indicated, overnight at final concentration 2 μg/ml. 48 h post-transfection, cells were washed and preincubated in Tyrode +1 mM CaCl2 at 37° C. for 60 min then treated, as indicated, with 100 nM of U46619 or 1 μg/ml of Rho activator II (CN03; Cytoskeleton, Inc) for 1 min at 37° C. […] BRET was measured at 37° C., using a Tristar Microplate Reader (Berthold Technologies).

[6] = target: T1, AT1R; test: AT1R sorting to rab4 vesicles BRET (AT1R-RlucII/rGFP-rab4); type: cell-based; parameters: expressed in transfected cells; host or cells: HEK293SL (HEK293 for the screen); details: 100 nM AngII, 100 nM SI, 1 μM DVG
Method: as §1

## CCOc1ccc2c(c1)C1(CCC(OCCN3CCOCC3)CC1)C(=O)N2S(=O)(=O)c1ccc(C(=O)NC(C)(C)C)cc1OC (centres unmarked) [SR121463]
[1]
  PC-mediated rescue of cell surface expression: PC-mediated rescue

## OC[C@H]1O[C@@](CO)(O[C@H]2O[C@H](CO)[C@@H](O)[C@H](O)[C@H]2O)[C@@H](O)[C@@H]1O [sucrose]
[2]
  effect on AngII-induced BRET response at the plasma membrane: efficiently blocked
[3]; 0.45 M sucrose 20 min
  effect on AngII-induced BRET response in the endosomes (β-arrestin2): efficiently blocked
[4]; 0.45 M sucrose 20 min
  effect on AngII-induced BRET response in the endosomes (receptor): efficiently blocked

## CNCC(=O)N[C@@H](CCCN=C(N)N)C(=O)N[C@H](C(=O)N[C@@H](Cc1ccc(O)cc1)C(=O)N[C@H](C(=O)N[C@@H](Cc1cnc[nH]1)C(=O)N1CCC[C@H]1C(=O)N[C@@H](C)C(=O)O)C(C)C)C(C)C [Saralasin]
[5]
  impact of Gq inhibition on ligand-mediated Rho activation: did not affect

## [Sar1-Val5-D-Phe8] AngII [SVdF]
[5]
  impact of Gq inhibition on ligand-mediated Rho activation: reduced efficacy and a rightward-shifted potency

## CC[C@H](C)[C@H](NC(=O)[C@H](Cc1ccc(O)cc1)NC(=O)[C@@H](NC(=O)[C@H](CCCNC(=N)N)NC(=O)CNC)C(C)C)C(=O)N[C@@H](Cc1cnc[nH]1)C(=O)N1CCC[C@H]1C(=O)N[C@H](C)C(=O)O [TRV, [Sar1-D-Ala8] AngII]
[5]
  impact of Gq inhibition on ligand-mediated Rho activation: did not affect

## CC[C@H](C)[C@H](NC(=O)[C@@H]1CCCN1C(=O)[C@H](Cc1c[nH]cn1)NC(=O)[C@@H](NC(=O)[C@H](Cc1ccc(O)cc1)NC(=O)[C@@H](NC(=O)[C@H](CCCNC(=N)N)NC(=O)CNC)C(C)C)[C@@H](C)CC)C(=O)O [SI, [Sar^1, IIe^8]-AngII]
[6]
  time at which BRET signal plateaued: 10 min
[5]
  impact of Gq inhibition on ligand-mediated Rho activation: reduced efficacy and a rightward-shifted potency
[3]; 40 min
  β-arrestin2 trafficking to endosomes with receptors, compared to AngII: weakly promoted
[4]; 100 nM SI or 1 μM DVG
  time to maximal AT1R internalization into endosomes: 20 min
[4]; 100 nM SI or 1 μM DVG vs 100 nM AngII
  less efficacious than AngII at promoting AT1R concentration in early endosomes: 20%
[4]; 40 min
  receptor accumulation in endosomes, compared to AngII: promoted less receptor accumulation in endosomes

## CO/C1=C\C(C)=C\[C@@H](C)[C@@H](O)[C@@H](C)C/C(C)=C/C=C/[C@H](OC)[C@@H]([C@@H](C)[C@@H](O)[C@H](C)[C@@]2(O)C[C@@H](O)[C@H](C)[C@@H](C(C)C)O2)OC1=O [bafilomycin A]
[4]; AngII 40 min
  effect on agonist-mediated accumulation of AT1R in endosomes: increased

From patent publication US10584159B2, “Renilla based biosensors for monitoring biomolecule localization and trafficking in cells” (The Royal Institution for the Advancement of …, priority 2014, dated 2020)
